Experimental data as given in patent publication US5028587A, “Mixed crystals of insulin and insulin derivatives” (Hoechst Aktiengesellschaft, priority 1987, dated 1991).

Legend:
[1] = specific activity of the insulin used; conditions: specific activity of the substance used for crystallization
[2] = isoelectric point by isoelectric focusing; type: physicochemical; conditions: pH
Text: It is common to all these insulin derivatives that the additional positive charge(s) which is(are) located on the surface of the molecule confer on the molecule an isoelectric point which is displaced into the neutral range. Depending on the derivative, the isoelectric points measured by isoelectric focusing are from about 5.8 to about 8.5, in particular about 6.2 to about 8.2. This means that the derivatives are less soluble in the neutral range than is unmodified insulin, whose isoelectric point, and thus whose region of maximum insolubility, is at a pH of about 5.4, whereas it is normally in dissolved form in the neutral range.

[3] = cited from earlier work

Substance	activity [1]	isoelectric point [2]	in vivo half-life [3]
Arg2 -(B31-32) human insulin	27 I.U./mg		
Arg-B31 human insulin	27 I.U./mg		
Human insulin	27 I.U./mg		
insulin [unmodified insulin]		about 5.4	about 7 minutes
